Laboratory results: US10842789B2, “Treatment of schizophrenia” (PIERRE FABRE MEDICAMENT, priority 2017, dated 2020)
Marks after values point to notes of the source that are not given here.

What was measured:
[1] = target: T1, human recombinant dopamine D2L receptor (Homo sapiens, UniProt P14416); assay: [3H] spiperone binding, cells expressing human recombinant dopamine D2L receptors
T1 construct: expressed in transfected cells
Protocol: (§1) The activity of F17464 was evaluated at recombinant dopaminergic receptors in vitro for its profile at D2 and D3 receptor. […] F17464 was also evaluated for its agonist, partial agonist, or antagonist activity at the dopamine D3 receptor by using the MAP-kinase activity test on human recombinant dopamine D3 receptors (Cussac et al., Mol. Pharmacol. 1999, 56, 1025-1030).
(§2) As used herein, the term “selective D3 antagonist” refers to a D3 antagonist, as defined here above, that has more affinity for the D3 receptor than for the D2 receptor (D2S and/or D2L). Affinity of a compound for a receptor is usually expressed as a Ki value. Preferentially, the relative binding affinities are determined in competitive radioligand binding studies using cells expressing human recombinant dopamine D3, D2S or D2L receptors (Newman-Tancredi et al. British Journal of Pharmacology, 2007, 151, 237-252). More preferentially, it is defined in [^3H] spiperone binding studies using cells expressing human recombinant dopamine D3 receptors or human recombinant dopamine D2L or D2S receptors (Cussac et al. Naunyn-Schmiedeberg's Arch Pharmacol, 2000, 361, 569-572).

[2] = system: D2 receptor; details: healthy subjects, after two single dose levels; cited from earlier work
[3] = system: patients with acute exacerbation of schizophrenia; assay: Double-blind placebo-controlled phase II study, patients with acute exacerbation of schizophrenia; format: in vivo, human
Protocol: N-(3-{4-[4-(8-oxo-8H-[1,3]dioxolo[4,5-g]chromen-7-yl)-butyl]-piperazin-1-yl}-phenyl)-methanesulfonamide hydrochloride has been tested in a placebo-controlled study of patients with an acute exacerbation of schizophrenia.
This double-blind, parallel group, multicenter study included patients with acute exacerbation of schizophrenia treated either with F17464 fixed dose 40 mg (20 mg bid) or placebo (randomization 1:1) for 6 weeks as antipsychotic monotherapy. The primary objective was to evaluate the efficacy of F17464 in comparison to placebo. The primary efficacy criterion was the PANSS (Positive and Negative Syndrome Scale) total score change from baseline to Day 43 on the Full Analysis Set (FAS).
Inclusion criteria included a well-documented diagnosis of schizophrenia for a minimum of 1 year, and a recent acute exacerbation characterized by a PANSS total score at screening ≥70 and <120 with no significant change of the PANSS positive subscore between the screening and randomization visits; and Clinical Global Impression of Severity (CGI-S) score ≥4.
All patients had discontinued previous treatments within the week prior to administration of study medication.
Following screening, patients were maintained in hospital till the 3rd week of treatment. Patients who had CGI-I (Clinical Global Impression of Improvement) score of ≤3 after 3 or 4 weeks were then eligible for hospital discharge and could continue study participation as outpatients.
The PANSS scores of the tested patients were established each week.
Schizophrenia History: Before Screening Visit • Patient with a current primary diagnosis of schizophrenia undergoing an acute exacerbation with prominent “active phase” symptoms, as described by the Diagnostic and Statistical Manual of Mental Disorders, 4th edition—Text Revision (DSM IV-TR) using the MINI 6.0 (Mini-International Neuropsychiatric Interview) for schizophrenia and psychotic disorders related to DSM IV-TR; • For a minimum of 1 year, well-documented diagnosis with the first hospitalization for acute exacerbation of schizophrenia; • Since the diagnosis of schizophrenia, the average number of hospitalizations should be no higher than 2 per year (the minimum duration of hospitalization should be more than 4 days); • During the year before screening visit, maximum 3 acute psychotic episodes that required hospitalization or change of antipsychotic medication or other therapeutic intervention; • Adequate clinical response to well-conducted treatment courses during previous acute episodes. A well conducted treatment course is defined as an antipsychotic treatment with the usual doses for at least 4 weeks. Current Acute Episode: • Structured Clinical Interview for the Positive And Negative Syndrome Scale (SCI-PANSS) with a PANSS total score ≥70 to <120 (at screening and randomization visits); • Rating of at least 4 (moderate) on at least 2 of the following 4 PANSS positive symptoms: delusions, hallucinatory behavior, conceptual disorganization, suspiciousness/persecution; • Clinical Global Impression of Severity (CGI-S) score ≥4 (moderate or severe). • Antipsychotic initiated for this acute episode and/or ongoing chronic antipsychotic treatment, with a maximum of 2 antipsychotics in total needed to be changed (due to inefficacy or safety reasons); • Hospitalization and/or treatment for the current psychotic episode for less than 2 weeks prior to screening visit; • No significant improvement of PANSS total score between enrolment (screening visit) and inclusion (randomization visit) corresponding to a score improvement <20% on positive symptoms subscale. Examination: • Normal physical examination results, vital signs and clinical laboratory test results or other results judged not clinically significant by the investigator; • Body mass index (BMI)≥18 and ≤35 kg/m^2 inclusive. […]

[4] = target: T2, D3 (Homo sapiens, UniProt P35462); details: healthy subjects, after two single dose levels; cited from earlier work
T2 construct: from tissue; host or cells: brain of healthy subjects in vivo (PET)
T2 sequence (P35462 whole entry): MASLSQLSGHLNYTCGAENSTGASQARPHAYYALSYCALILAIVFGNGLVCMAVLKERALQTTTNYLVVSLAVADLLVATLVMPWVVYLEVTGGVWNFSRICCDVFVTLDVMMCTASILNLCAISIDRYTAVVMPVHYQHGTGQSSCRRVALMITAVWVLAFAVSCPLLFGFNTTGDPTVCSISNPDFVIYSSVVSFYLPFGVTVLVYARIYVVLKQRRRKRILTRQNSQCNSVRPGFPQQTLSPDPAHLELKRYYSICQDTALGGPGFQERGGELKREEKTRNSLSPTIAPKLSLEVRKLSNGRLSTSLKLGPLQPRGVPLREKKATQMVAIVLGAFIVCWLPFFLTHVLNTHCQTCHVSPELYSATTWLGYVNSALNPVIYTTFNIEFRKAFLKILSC

[5] = target: T3, human recombinant dopamine D2S receptor (Homo sapiens, UniProt P14416); assay: [3H] spiperone binding, cells expressing human recombinant dopamine D2S receptors
T3 construct: expressed in transfected cells
T3 sequence (P14416 1-414 isoform P14416-2): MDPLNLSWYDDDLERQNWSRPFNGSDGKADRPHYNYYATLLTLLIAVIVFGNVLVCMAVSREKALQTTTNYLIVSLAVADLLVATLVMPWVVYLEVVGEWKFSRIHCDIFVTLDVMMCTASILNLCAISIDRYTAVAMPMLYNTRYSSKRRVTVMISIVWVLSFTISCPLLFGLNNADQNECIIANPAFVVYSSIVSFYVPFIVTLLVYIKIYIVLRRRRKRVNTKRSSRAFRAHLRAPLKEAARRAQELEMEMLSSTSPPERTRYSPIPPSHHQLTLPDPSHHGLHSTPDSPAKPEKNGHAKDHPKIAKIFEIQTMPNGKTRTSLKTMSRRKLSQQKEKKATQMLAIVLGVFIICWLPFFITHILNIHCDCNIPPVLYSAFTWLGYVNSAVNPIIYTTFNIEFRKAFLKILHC
Protocol: as §1, §2

[6] = F17464 versus placebo, FAS population n = 67
[7] = F17464 versus placebo, NS subgroup n = 29
[8] = NS subgroup versus FAS population
[9] = NS subgroup versus FAS population, score points
[10] = baseline to end of treatment, FAS

T1 sequence (P14416 whole entry): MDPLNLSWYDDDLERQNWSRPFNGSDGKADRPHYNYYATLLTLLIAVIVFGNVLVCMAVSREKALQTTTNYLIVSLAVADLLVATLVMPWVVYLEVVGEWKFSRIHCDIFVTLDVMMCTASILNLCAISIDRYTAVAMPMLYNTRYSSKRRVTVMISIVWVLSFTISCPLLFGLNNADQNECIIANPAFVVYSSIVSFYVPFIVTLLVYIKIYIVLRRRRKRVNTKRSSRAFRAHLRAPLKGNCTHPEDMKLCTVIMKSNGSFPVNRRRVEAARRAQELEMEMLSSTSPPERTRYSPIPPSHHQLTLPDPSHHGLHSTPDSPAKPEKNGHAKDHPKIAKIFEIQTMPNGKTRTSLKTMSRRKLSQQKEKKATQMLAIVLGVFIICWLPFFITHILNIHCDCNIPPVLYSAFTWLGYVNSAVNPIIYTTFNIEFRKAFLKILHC

affinity for dopamine D2L receptor, times weaker than D3 ([1]; D2L versus D3): 71 times
Ki ([1]; [3H] spiperone binding): 12.1 nM
affinity for dopamine D2S receptor, times weaker than D3 ([5]; D2S versus D3): 38 times
Ki ([5]; [3H] spiperone binding): 6.5 nM
Structure (SMILES): CS(=O)(=O)Nc1cccc(N2CCN(CCCCc3coc4cc5c(cc4c3=O)OCO5)CC2)c1 [F17464, N-(3-{4-[4-(8-oxo-8H-[1,3]dioxolo[4,5-g]chromen-7-yl)-butyl]-piperazin-1-yl}-phenyl)-methanesulfonamide]
binding rate to D2 receptor (PET) [2]: modest
clinically relevant hepatic, metabolic or cardio-vascular disorder ([3]; 20 mg bid, 6 weeks): no clinically relevant hepatic, metabolic (including clinically relevant weight gain) or cardio-vascular disorder
overall incidence of treatment-emergent adverse events (TEAEs) ([3]; 20 mg bid, 6 weeks): 70.1%
Treatment effect on change from baseline, PANSS general psychopathology [LSmean (SE)] [3, 6]: −3.6 (1.3) *
Treatment effect on change from baseline, PANSS negative symptoms [LSmean (SE)] [3, 6]: −0.7 (0.6)^
Treatment effect on change from baseline, PANSS positive symptoms [LSmean (SE)] [3, 6]: −1.9 (1.0) *
Treatment effect on change from baseline, PANSS general psychopathology [LSmean (SE)] [3, 7]: −6.4 (2.0) *
Treatment effect on change from baseline, PANSS negative symptoms [LSmean (SE)] [3, 7]: −2.7 (1.1) *
Treatment effect on change from baseline, PANSS positive symptoms [LSmean (SE)] [3, 7]: −4.3 (1.6) *
Treatment effect on change from baseline, PANSS total score [LSmean (SE)] [3, 7]: −13 (4.1) *
PANSS general psychopathology, change from baseline [LSmean (SE)] ([3]; FAS population n = 67, Day 43): −6.6 (1.0) *
PANSS negative symptoms, change from baseline [LSmean (SE)] ([3]; FAS population n = 67, Day 43): −1.7 (0.4)^
PANSS positive symptoms, change from baseline [LSmean (SE)] ([3]; FAS population n = 67, Day 43): −6.3 (0.8) *
Discontinuation for Adverse Event, number of patients ([3]; FAS, n = 67): 2
Discontinuation for Adverse Event, percent of patients ([3]; FAS, n = 67): (3.0%)
Discontinuation for Lack Of Efficacy/Worsening of schizophrenia, number of patients ([3]; FAS, n = 67): 11
Discontinuation for Lack Of Efficacy/Worsening of schizophrenia, percent of patients ([3]; FAS, n = 67): (16.4%)
reduction of PANSS total score versus placebo over time ([3]; From Day 22, FAS, LOCF): statistically higher than in placebo group
PANSS general psychopathology, change from baseline [LSmean (SE)] ([3]; NS subgroup n = 29, Day 43): −9.3 (1.5) *
PANSS negative symptoms, change from baseline [LSmean (SE)] ([3]; NS subgroup n = 29, Day 43): −4.3 (0.8) *
PANSS positive symptoms, change from baseline [LSmean (SE)] ([3]; NS subgroup n = 29, Day 43): −8.4 (1.2) *
PANSS total score, adjusted change from baseline [LSmean (SE)] ([3]; NS subgroup n = 29, Day 43): −21.8 (2.9) *
Difference of treatment effect, PANSS general psychopathology, percent [3, 8]: 78%
Difference of treatment effect, PANSS negative symptoms, percent [3, 8]: 285%
Difference of treatment effect, PANSS positive symptoms, percent [3, 8]: 126%
Difference of treatment effect, PANSS total score, percent [3, 8]: 110%
Difference of treatment effect, PANSS general psychopathology [3, 9]: 2.8
Difference of treatment effect, PANSS negative symptoms [3, 9]: 2
Difference of treatment effect, PANSS positive symptoms [3, 9]: 2.4
Difference of treatment effect, PANSS total score [3, 9]: 6.8
Response rate, PANSS total score reduction by 20% [3, 10]: 49.3%
Response rate, PANSS total score reduction by 30% [3, 10]: 27.0%
Time to first sustained PANSS 20% or 30% response ([3]; compared to placebo group, from D21 up to Day 42): Shorter
PANSS positive score and positive factor, defined by Marder, versus placebo ([3]; secondary criteria, FAS): statistically significantly greater
D3 binding rate (PET) [4]: strong and long-lasting
